{"source": "patent US20250186597A1", "about": "“TARGETED IMMUNE ACTIVATION WITH IL-18 IMMUNOCYTOKINES” (BRIGHT PEAK THERAPEUTICS AG, priority 2023, published 2025)", "key": {"[1]": {"system": "NK92 cells", "test": "IFN gamma secretion assay in NK92 cells (Example 10)", "type": "cell-based, human", "conditions": "IFNγ secretion, 1 ng/ml IL-12", "experimental": "The IFNγ-secretion stimulating activity of the unconjugated IL-18 variants and corresponding IL-18 immunocytokines was evaluated on NK92 cell line. The NK cell line NK-92 derived from a patient with lymphoma (ATCC, Cat #CRL-2407) was cultured in aMEM medium supplemented with 12.5% FCS, 12.5% horse serum (HS), 50 uM B-mercaptoEthanol, and 2 ng/ml of recombinant Human Interleukin-2 (IL-2).\nOn the day of experiment, cells were harvested and washed with aMEM medium without IL-2 and resuspended in medium (w/o IL-2) containing 1 ng/ml of recombinant human Interleukin-12 (SinoBiologicals, Cat #CT011-H08H). After counting, cells were seeded at 100 000 cells/well in a 384 well titer plate and incubated at 37° C./5% CO2. Sixteen 4-fold serial dilutions of IL-18 analytes were prepared in aMEM medium—1 ng/ml IL-12 and were added to the NK-92 cells. […]\n(§1) After 16-20 h incubation at 37° C./5% CO2, 5 μl of supernatant were carefully transferred to a 384 microwells OPTIPlate (Perkin Elmer; Cat #6007270) and Interferon-gamma (IFNγ) levels measured using the Human IFNγ AlphaLISA Assay Kit (Perkin Elmer, Cat #AL217C). […] AlphaLisa signal was then measured on an Enspire plate reader (Perkin Elmer) using 680 and 615 nm as excitation and emission wavelengths respectively. Half maximal effective concentration (EC50) was calculated based on a variable slope, four parameter analysis using GraphPad PRISM software."}, "[2]": {"system": "NK92 cells", "test": "Cellular IL-18 Binding Protein resistance assay in NK92 cells (Example 13)", "type": "cell-based, human", "conditions": "IL-18BP-mediated inhibition of IFNγ secretion, IL-18 analyte 1 nM", "experimental": "The NK cell line NK-92 derived from a patient with lymphoma (ATCC, Cat #CR^L-2407) was cultured in αMEM medium supplemented with 20% FCS-Glutamax, 25 μM B-mercaptoethanol, and 100 IU/ml of recombinant Human Interleukin-2 (IL-2). On the day of experiment, cells were harvested and washed with αMEM medium without IL-2. After counting, cells were seeded at 100 000 cells/well in a 384 well titer plate and incubated at 37° C./5% CO2. Sixteen 2-fold serial dilutions of Fc fused human IL-18 binding protein isoform a (IL-18BPa; R&D systems, Cat #119-BP) were prepared in αMEM medium—1 ng/ml IL-12 containing 2 nM of each IL-18 variants and were added to the NK-92 cells. Final IL-18 analytes concentration was 1 nM and final IL-18BPa concentrations ranged from to 566 nM down to 17 pM.\nas §1, with “OPTIplate” for “OPTIPlate”, “inhibitory” for “effective”, “(IC50)” for “(EC50)”"}, "[3]": {"biological_target": "T1, human IL-18 Binding Protein (IL-18BP) (Homo sapiens, UniProt O95998)", "T1 sequence (O95998 31-194)": "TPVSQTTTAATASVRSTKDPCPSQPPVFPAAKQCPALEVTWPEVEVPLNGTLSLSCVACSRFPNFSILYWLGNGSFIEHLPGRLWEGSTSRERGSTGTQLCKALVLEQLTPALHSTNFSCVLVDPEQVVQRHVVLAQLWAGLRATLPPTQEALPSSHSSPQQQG", "test": "IL-18 Binding Protein alphaLISA assay (Example 12)", "conditions": "human IL-18BP", "experimental": "Wild type or modified IL-18 polypeptides samples were diluted at 5.6 μM in a solution of 1× alphaLISA Immunoassay Buffer provided in the alphaLISA IFNγ Detection kit and were diluted applying 3-fold serial dilutions down to […] in 384 deep well plates. A solution of 10 ng/ml of human IL-18BP-His was prepared with 1×alphaLISA Immunoassay Buffer. IL-18/IL-18BP complex formation was performed incubating 30 μl of IL-18BP solution to IL-18 sample titrations for 1 h at 20° C. IL-18BP standard was prediluted from stock solution supplied in alphaLISA IFNγ Detection kit at 100 ng/ml with 1×alphaLISA Buffer and titration prepared from applying 2-fold serial dilutions. The following solutions were prepared: a 50 μg/ml solution of anti-IL-18BP alphaLISA Acceptor beads, a 5 nM solution of biotinylated anti-IL18BP antibody and a 80 μg/ml light-protected solution of Streptavidin Donor beads in 1×alphaLISA Immunoassay Buffer. […]\n5 μl of Biotinylated anti-IL-18BP antibody were added, followed by a short centrifugation step at 150 g, and incubated for 60 minutes at 20° C. under shaking at 750 rpm. […] AlphaLisa signal was then measured on an Enspire plate reader (Perkin Elmer) using 680 and 615 nm as excitation and emission wavelengths respectively. […]"}}, "data": [{"substance": "SEQ ID NO: 1: Native sequence of human IL-18 (bioactive form) [reference compound]", "values": [{"measurement": "EC50", "setting": "[1]", "value": 0.374, "unit": "nM"}, {"measurement": "IC50", "setting": "[2]", "value": 0.781, "unit": "nM"}, {"measurement": "Kd", "setting": "[3]", "value": 0.411, "unit": "nM"}]}]}
